HELM strings list units from the 5' end as sugar, base in round brackets, then linkage (d deoxyribose, r ribose, m 2'-O-methyl, p phosphodiester). Strings are as the collection lists them; they lack the last nucleoside at the 3' end of the tested compound. [moe] = 2'-O-(2-methoxyethyl) (MOE); [sp] = phosphorothioate linkage; [m5C] = 5-methylcytosine
target: APP; assay: mouse, dose not given; conditions: ASO

Substance | 3 h FOB score [score 0-7]
RNA1{[moe](T)[sp].[moe]([m5C])p.[moe]([m5C])p.[moe](A)p.[moe](A)[sp].d(T)[sp].d(T)[sp].d(T)[sp].d(T)[sp].d(A)[sp].d(A)[sp].d([m5C])[sp].d(T)[sp].d(T)[sp].d(G)[sp].[moe]([m5C])p.[moe](A)p.[moe]([m5C])[sp].[moe]([m5C])}$$$$ (last 3' nucleoside missing) | 0.5
RNA1{[moe](A)[sp].[moe]([m5C])p.[moe](A)p.[moe](T)p.[moe](T)[sp].d(A)[sp].d(T)[sp].d(T)[sp].d([m5C])[sp].d(T)[sp].d(A)[sp].d(T)[sp].d(A)[sp].d(A)[sp].d(A)[sp].[moe](T)p.[moe](G)p.[moe](G)[sp].[moe](A)}$$$$ (last 3' nucleoside missing) | 0
RNA1{[moe](A)[sp].[moe](T)p.[moe](G)p.[moe](T)p.[moe](G)[sp].d(A)[sp].d(T)[sp].d(T)[sp].d(T)[sp].d([m5C])[sp].d(A)[sp].d([m5C])[sp].d(T)[sp].d(A)[sp].d(A)[sp].[moe]([m5C])p.[moe]([m5C])p.[moe](G)[sp].[moe](G)}$$$$ (last 3' nucleoside missing) | 0
RNA1{[moe](G)[sp].[moe]([m5C])p.[moe]([m5C])p.[moe](T)p.[moe](T)[sp].d(A)[sp].d(T)[sp].d(T)[sp].d(A)[sp].d(T)[sp].d([m5C])[sp].d(T)[sp].d([m5C])[sp].d(A)[sp].d(A)[sp].[moe](A)p.[moe]([m5C])p.[moe](T)[sp].[moe]([m5C])}$$$$ (last 3' nucleoside missing) | 0
RNA1{[moe]([m5C])[sp].[moe](A)p.[moe](T)p.[moe](T)p.[moe]([m5C])[sp].d(T)[sp].d([m5C])[sp].d(T)[sp].d(T)[sp].d(A)[sp].d(T)[sp].d(A)[sp].d(T)[sp].d(T)[sp].d([m5C])[sp].[moe]([m5C])p.[moe](T)p.[moe](T)[sp].[moe](A)}$$$$ (last 3' nucleoside missing) | 0
RNA1{[moe](T)[sp].[moe]([m5C])p.[moe](T)p.[moe]([m5C])p.[moe](T)[sp].d([m5C])[sp].d(A)[sp].d(T)[sp].d(A)[sp].d(G)[sp].d(T)[sp].d([m5C])[sp].d(T)[sp].d(T)[sp].d(A)[sp].[moe](A)p.[moe](T)p.[moe](T)[sp].[moe]([m5C])}$$$$ (last 3' nucleoside missing) | 0
RNA1{[moe](T)[sp].[moe]([m5C])p.[moe](T)p.[moe](T)p.[moe]([m5C])[sp].d(A)[sp].d(A)[sp].d([m5C])[sp].d(T)[sp].d(T)[sp].d(A)[sp].d(G)[sp].d(T)[sp].d([m5C])[sp].d(A)[sp].[moe](T)p.[moe]([m5C])p.[moe]([m5C])[sp].[moe](T)}$$$$ (last 3' nucleoside missing) | 0
RNA1{[moe](G)[sp].[moe]([m5C])p.[moe](A)p.[moe]([m5C])p.[moe](A)[sp].d(A)[sp].d(A)[sp].d(T)[sp].d(T)[sp].d(T)[sp].d(T)[sp].d(A)[sp].d(T)[sp].d([m5C])[sp].d(A)[sp].[moe]([m5C])p.[moe](A)p.[moe](T)[sp].[moe]([m5C])}$$$$ (last 3' nucleoside missing) | 0
RNA1{[moe](G)[sp].[moe]([m5C])p.[moe](A)p.[moe](T)p.[moe](G)[sp].d(T)[sp].d(T)[sp].d([m5C])[sp].d(A)[sp].d(T)[sp].d(T)[sp].d([m5C])[sp].d(T)[sp].d([m5C])[sp].d(A)[sp].[moe](T)p.[moe]([m5C])p.[moe]([m5C])[sp].[moe]([m5C])}$$$$ (last 3' nucleoside missing) | 0
RNA1{[moe](T)[sp].[moe](T)p.[moe](T)p.[moe](G)p.[moe]([m5C])[sp].d(A)[sp].d(T)[sp].d(A)[sp].d(T)[sp].d(T)[sp].d([m5C])[sp].d(A)[sp].d(T)[sp].d(A)[sp].d([m5C])[sp].[moe](T)p.[moe](T)p.[moe](G)[sp].[moe](G)}$$$$ (last 3' nucleoside missing) | 0
RNA1{[moe](G)[sp].[moe](T)p.[moe](T)p.[moe](T)p.[moe](A)[sp].d([m5C])[sp].d([m5C])[sp].d(T)[sp].d(T)[sp].d(T)[sp].d(A)[sp].d(A)[sp].d([m5C])[sp].d(A)[sp].d(T)[sp].[moe](T)p.[moe]([m5C])p.[moe]([m5C])[sp].[moe](T)}$$$$ (last 3' nucleoside missing) | 0
RNA1{[moe]([m5C])[sp].[moe](T)p.[moe]([m5C])p.[moe](T)p.[moe]([m5C])[sp].d(A)[sp].d(T)[sp].d(A)[sp].d(G)[sp].d(T)[sp].d([m5C])[sp].d(T)[sp].d(T)[sp].d(A)[sp].d(A)[sp].[moe](T)p.[moe](T)p.[moe]([m5C])[sp].[moe]([m5C])}$$$$ (last 3' nucleoside missing) | 0.25
RNA1{[moe]([m5C])[sp].[moe](T)p.[moe]([m5C])p.[moe](T)p.[moe](T)[sp].d(G)[sp].d(T)[sp].d(T)[sp].d(A)[sp].d(A)[sp].d(A)[sp].d(T)[sp].d([m5C])[sp].d(A)[sp].d(T)[sp].[moe](G)p.[moe](G)p.[moe]([m5C])[sp].[moe](A)}$$$$ (last 3' nucleoside missing) | 0
RNA1{[moe]([m5C])[sp].[moe](T)p.[moe](T)p.[moe]([m5C])p.[moe](T)[sp].d(G)[sp].d([m5C])[sp].d(A)[sp].d(A)[sp].d(A)[sp].d(G)[sp].d(A)[sp].d(A)[sp].d([m5C])[sp].d(A)[sp].[moe]([m5C])p.[moe]([m5C])p.[moe](A)[sp].[moe](A)}$$$$ (last 3' nucleoside missing) | 0.5
RNA1{[moe](T)[sp].[moe](G)p.[moe](T)p.[moe](T)p.[moe]([m5C])[sp].d([m5C])[sp].d(A)[sp].d(A)[sp].d(A)[sp].d(G)[sp].d(A)[sp].d(T)[sp].d(T)[sp].d([m5C])[sp].d([m5C])[sp].[moe](A)p.[moe]([m5C])p.[moe](T)[sp].[moe](T)}$$$$ (last 3' nucleoside missing) | 1
RNA1{[moe](T)[sp].[moe](A)p.[moe](G)p.[moe](T)p.[moe](A)[sp].d([m5C])[sp].d(A)[sp].d(T)[sp].d(T)[sp].d([m5C])[sp].d([m5C])[sp].d(A)[sp].d([m5C])[sp].d(T)[sp].d(T)[sp].[moe](T)p.[moe](G)p.[moe](T)[sp].[moe](T)}$$$$ (last 3' nucleoside missing) | 0
RNA1{[moe]([m5C])[sp].[moe]([m5C])p.[moe]([m5C])p.[moe](A)p.[moe]([m5C])[sp].d(T)[sp].d(T)[sp].d([m5C])[sp].d([m5C])[sp].d([m5C])[sp].d(A)[sp].d(T)[sp].d(T)[sp].d([m5C])[sp].d(T)[sp].[moe](G)p.[moe](G)p.[moe](A)[sp].[moe]([m5C])}$$$$ (last 3' nucleoside missing) | 0.5
RNA1{[moe]([m5C])[sp].[moe](A)p.[moe](G)p.[moe]([m5C])p.[moe]([m5C])[sp].d([m5C])[sp].d([m5C])[sp].d(A)[sp].d(A)[sp].d(A)[sp].d(A)[sp].d(G)[sp].d(A)[sp].d(A)[sp].d(T)[sp].[moe](G)p.[moe]([m5C])p.[moe]([m5C])[sp].[moe](A)}$$$$ (last 3' nucleoside missing) | 0.5
RNA1{[moe]([m5C])[sp].[moe](A)p.[moe]([m5C])p.[moe]([m5C])p.[moe](T)[sp].d([m5C])[sp].d(A)[sp].d(G)[sp].d([m5C])[sp].d([m5C])[sp].d(A)[sp].d([m5C])[sp].d(T)[sp].d(T)[sp].d([m5C])[sp].[moe](T)p.[moe](T)p.[moe]([m5C])[sp].[moe]([m5C])}$$$$ (last 3' nucleoside missing) | 0.5
RNA1{[moe](T)[sp].[moe]([m5C])p.[moe](A)p.[moe](T)p.[moe](T)[sp].d([m5C])[sp].d(T)[sp].d([m5C])[sp].d(A)[sp].d(T)[sp].d([m5C])[sp].d([m5C])[sp].d([m5C])[sp].d([m5C])[sp].d(A)[sp].[moe](G)p.[moe](G)p.[moe](T)[sp].[moe](G)}$$$$ (last 3' nucleoside missing) | 0
RNA1{[moe](A)[sp].[moe]([m5C])p.[moe](T)p.[moe](T)p.[moe]([m5C])[sp].d(T)[sp].d(A)[sp].d([m5C])[sp].d(T)[sp].d(A)[sp].d([m5C])[sp].d(T)[sp].d(T)[sp].d(T)[sp].d(G)[sp].[moe](T)p.[moe]([m5C])p.[moe](T)[sp].[moe](T)}$$$$ (last 3' nucleoside missing) | 1.5
RNA1{[moe](T)[sp].[moe](G)p.[moe](T)p.[moe](G)p.[moe]([m5C])[sp].d(A)[sp].d([m5C])[sp].d(A)[sp].d(T)[sp].d(A)[sp].d(A)[sp].d(A)[sp].d(A)[sp].d([m5C])[sp].d(A)[sp].[moe](G)p.[moe](G)p.[moe]([m5C])[sp].[moe](A)}$$$$ (last 3' nucleoside missing) | 1
RNA1{[moe](A)[sp].[moe]([m5C])p.[moe](A)p.[moe](T)p.[moe]([m5C])[sp].d(A)[sp].d(T)[sp].d(A)[sp].d(T)[sp].d(T)[sp].d([m5C])[sp].d(T)[sp].d(T)[sp].d(A)[sp].d([m5C])[sp].[moe](T)p.[moe](G)p.[moe](T)[sp].[moe](T)}$$$$ (last 3' nucleoside missing) | 0
RNA1{[moe](T)[sp].[moe]([m5C])p.[moe](T)p.[moe]([m5C])p.[moe]([m5C])[sp].d(A)[sp].d(A)[sp].d(T)[sp].d(T)[sp].d(T)[sp].d(T)[sp].d(A)[sp].d(A)[sp].d([m5C])[sp].d(T)[sp].[moe](T)p.[moe](G)p.[moe]([m5C])[sp].[moe](A)}$$$$ (last 3' nucleoside missing) | 0
RNA1{[moe]([m5C])[sp].[moe](T)p.[moe](G)p.[moe](G)p.[moe](G)[sp].d(T)[sp].d(A)[sp].d([m5C])[sp].d(A)[sp].d(T)[sp].d(A)[sp].d(A)[sp].d(T)[sp].d(A)[sp].d([m5C])[sp].[moe](T)p.[moe](A)p.[moe](G)[sp].[moe](G)}$$$$ (last 3' nucleoside missing) | 0
